Activity calls are given as the source filed them. No cut-off for these calls is given here.
Key:
NCI-H1299 = assay: Cytotoxicity in human NCI-H1299 cells assessed as reduction in cell viability incubated for 24 hrs by CCK8 assay; format: functional, cell-based; conditions: NCI-H1299, 24 h
NCI-H1975 = assay: Cytotoxicity in human NCI-H1975 cells assessed as reduction in cell viability incubated for 24 hrs by CCK8 assay; format: functional, cell-based; conditions: NCI-H1975, 24 h
MGC-803 = assay: Cytotoxicity in human MGC-803 cells assessed as reduction in cell viability incubated for 24 hrs by CCK8 assay; format: functional, cell-based; conditions: MGC-803, 24 h
PC-9 = assay: Cytotoxicity in human PC-9 cells assessed as reduction in cell viability incubated for 24 hrs by CCK8 assay; format: functional, cell-based; conditions: PC-9, 24 h
ASPC1 = assay: Cytotoxicity in human ASPC1 cells assessed as reduction in cell viability incubated for 24 hrs by CCK8 assay; format: functional, cell-based; conditions: ASPC1, 24 h
RKO = assay: Cytotoxicity in human RKO cells assessed as reduction in cell viability incubated for 24 hrs by CCK8 assay; format: functional, cell-based
A549 = assay: Cytotoxicity in human A549 cells assessed as reduction in cell viability incubated for 24 hrs by CCK8 assay; format: functional, cell-based; conditions: A549, 24 h
BXPC-3 [1] = assay: Cytotoxicity in human BXPC-3 cells assessed as reduction in cell viability incubated for 24 hrs by CCK8 assay; format: functional, cell-based; conditions: BXPC-3, 24 h
[2] = molecular target: PKC alpha and beta-2 (Homo sapiens) (UniProt P17252+P05771); assay: Inhibition of PKCalpha/beta II phosphorylation at T638/T641 residue in human BXPC-3 cells at 1 uM incubated for 4 hrs by Western blot analysis; format: cell-based
PKC alpha and beta-2 (Homo sapiens), sequence (P05771 whole entry, looked up): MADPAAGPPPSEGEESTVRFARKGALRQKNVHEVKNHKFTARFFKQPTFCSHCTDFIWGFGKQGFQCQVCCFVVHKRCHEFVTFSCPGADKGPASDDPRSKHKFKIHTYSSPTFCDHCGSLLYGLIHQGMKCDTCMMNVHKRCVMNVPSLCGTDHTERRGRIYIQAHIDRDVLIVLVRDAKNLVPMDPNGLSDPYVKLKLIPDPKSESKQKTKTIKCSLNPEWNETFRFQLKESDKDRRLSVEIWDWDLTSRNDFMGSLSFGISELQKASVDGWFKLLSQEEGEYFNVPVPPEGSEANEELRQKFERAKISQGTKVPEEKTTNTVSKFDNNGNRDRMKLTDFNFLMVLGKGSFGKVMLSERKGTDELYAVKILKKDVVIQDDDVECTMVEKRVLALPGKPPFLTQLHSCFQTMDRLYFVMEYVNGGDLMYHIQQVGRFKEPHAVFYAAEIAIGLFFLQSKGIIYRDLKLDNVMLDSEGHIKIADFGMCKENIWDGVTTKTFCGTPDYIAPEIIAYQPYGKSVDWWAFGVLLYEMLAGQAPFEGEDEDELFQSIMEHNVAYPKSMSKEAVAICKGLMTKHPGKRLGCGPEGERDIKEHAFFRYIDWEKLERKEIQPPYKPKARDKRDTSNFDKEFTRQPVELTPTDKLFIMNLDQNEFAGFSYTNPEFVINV

[3] = molecular target: Inhibitor of nuclear factor kappa-B kinase subunit beta (Homo sapiens) (UniProt O14920); assay: Inhibition of IKKbeta phosphorylation in human BXPC-3 cells at 0.5 uM measured within 1 hr by Western blot analysis; format: cell-based; conditions: time hrs <=1
Inhibitor of nuclear factor kappa-B kinase subunit beta (Homo sapiens), sequence (O14920 whole entry): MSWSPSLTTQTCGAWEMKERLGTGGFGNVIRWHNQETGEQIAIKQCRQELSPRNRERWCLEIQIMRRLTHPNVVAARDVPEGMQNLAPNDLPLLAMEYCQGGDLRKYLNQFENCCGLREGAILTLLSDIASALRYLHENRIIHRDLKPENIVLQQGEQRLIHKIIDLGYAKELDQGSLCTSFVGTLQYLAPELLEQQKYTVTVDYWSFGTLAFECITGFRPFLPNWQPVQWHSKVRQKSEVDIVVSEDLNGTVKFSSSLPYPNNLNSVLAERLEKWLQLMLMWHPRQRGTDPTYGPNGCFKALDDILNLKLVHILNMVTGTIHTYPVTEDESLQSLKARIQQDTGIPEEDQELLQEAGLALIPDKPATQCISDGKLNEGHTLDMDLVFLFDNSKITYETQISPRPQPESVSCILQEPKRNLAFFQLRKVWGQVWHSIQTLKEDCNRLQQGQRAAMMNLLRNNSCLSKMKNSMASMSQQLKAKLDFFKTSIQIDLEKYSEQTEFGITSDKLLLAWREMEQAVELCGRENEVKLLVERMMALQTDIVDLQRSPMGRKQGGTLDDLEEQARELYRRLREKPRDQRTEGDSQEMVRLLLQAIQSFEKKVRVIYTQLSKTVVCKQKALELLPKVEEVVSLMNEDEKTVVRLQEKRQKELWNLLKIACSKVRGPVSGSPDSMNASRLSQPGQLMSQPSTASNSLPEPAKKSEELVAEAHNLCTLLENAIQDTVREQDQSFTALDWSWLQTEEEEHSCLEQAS

[4] = molecular target: Protein kinase C iota type/zeta type (Homo sapiens) (UniProt P41743+Q05513); assay: Inhibition of PKCzeta/lambda phosphorylation at T410/T403 residue in human BXPC-3 cells at 1 uM incubated for 4 hrs by Western blot analysis; format: cell-based
BXPC-3 [5] = assay: Induction of apoptosis in human BXPC-3 cells assessed as increase in cleaved caspase-9 level at 0.25 uM incubated for 30 mins by Western blot analysis; format: functional, cell-based
BXPC-3 [6] = assay: Reduction in Mcl1 protein expression in human BXPC-3 cells incubated for 24 hrs by Western blot analysis; format: functional, cell-based
BXPC-3 [7] = assay: Induction of apoptosis in human BXPC-3 cells assessed as increase in cleaved caspase-7 level at 0.25 uM incubated for 30 mins by Western blot analysis; format: functional, cell-based
[8] = molecular target: Protein kinase C alpha type (Homo sapiens) (UniProt P17252); assay: Inhibition of PKCalpha phosphorylation in human BXPC-3 cells at 1 uM incubated for 4 hrs by Western blot analysis; format: cell-based
[9] = molecular target: Transcription factor p65 (Homo sapiens) (UniProt Q04206); assay: Inhibition of p65 phosphorylation in human BXPC-3 cells at 0.5 uM measured within 1 hr by Western blot analysis; format: cell-based; conditions: time hrs <=1
Transcription factor p65 (Homo sapiens), sequence (Q04206 whole entry): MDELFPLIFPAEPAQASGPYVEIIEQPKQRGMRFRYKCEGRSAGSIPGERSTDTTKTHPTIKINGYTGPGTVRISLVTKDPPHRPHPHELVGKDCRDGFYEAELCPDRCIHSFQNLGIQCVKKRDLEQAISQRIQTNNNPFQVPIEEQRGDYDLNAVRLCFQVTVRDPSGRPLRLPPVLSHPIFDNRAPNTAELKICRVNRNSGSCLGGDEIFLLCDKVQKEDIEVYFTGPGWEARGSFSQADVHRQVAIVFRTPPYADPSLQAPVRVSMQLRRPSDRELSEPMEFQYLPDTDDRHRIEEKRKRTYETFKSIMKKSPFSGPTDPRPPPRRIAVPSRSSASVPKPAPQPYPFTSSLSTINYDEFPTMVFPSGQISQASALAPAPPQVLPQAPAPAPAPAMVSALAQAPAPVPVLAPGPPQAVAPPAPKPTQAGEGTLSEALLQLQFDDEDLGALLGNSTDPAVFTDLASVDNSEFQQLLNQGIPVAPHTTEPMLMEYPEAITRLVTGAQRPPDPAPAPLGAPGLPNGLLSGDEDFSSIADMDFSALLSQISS

BXPC-3 [10] = assay: Antitumor activity against patient-derived pancreatic cancer cells xenografted in BALB/c mouse model of patient-derived xenograft assessed as increase in cleaved caspase-3 levels at 6 mg/kg, iv dosed once every 2 days for 18 days by Western blot analysis; format: functional, organism-based; conditions: Homo sapiens, time 18.0 day
[11] = molecular target: Protein kinase C beta type (Homo sapiens) (UniProt P05771); assay: Inhibition of PKCbeta phosphorylation at S660 residue in human BXPC-3 cells at 1 uM incubated for 4 hrs by Western blot analysis; format: cell-based
Protein kinase C beta type (Homo sapiens), sequence (P05771 2-671 limits assumed): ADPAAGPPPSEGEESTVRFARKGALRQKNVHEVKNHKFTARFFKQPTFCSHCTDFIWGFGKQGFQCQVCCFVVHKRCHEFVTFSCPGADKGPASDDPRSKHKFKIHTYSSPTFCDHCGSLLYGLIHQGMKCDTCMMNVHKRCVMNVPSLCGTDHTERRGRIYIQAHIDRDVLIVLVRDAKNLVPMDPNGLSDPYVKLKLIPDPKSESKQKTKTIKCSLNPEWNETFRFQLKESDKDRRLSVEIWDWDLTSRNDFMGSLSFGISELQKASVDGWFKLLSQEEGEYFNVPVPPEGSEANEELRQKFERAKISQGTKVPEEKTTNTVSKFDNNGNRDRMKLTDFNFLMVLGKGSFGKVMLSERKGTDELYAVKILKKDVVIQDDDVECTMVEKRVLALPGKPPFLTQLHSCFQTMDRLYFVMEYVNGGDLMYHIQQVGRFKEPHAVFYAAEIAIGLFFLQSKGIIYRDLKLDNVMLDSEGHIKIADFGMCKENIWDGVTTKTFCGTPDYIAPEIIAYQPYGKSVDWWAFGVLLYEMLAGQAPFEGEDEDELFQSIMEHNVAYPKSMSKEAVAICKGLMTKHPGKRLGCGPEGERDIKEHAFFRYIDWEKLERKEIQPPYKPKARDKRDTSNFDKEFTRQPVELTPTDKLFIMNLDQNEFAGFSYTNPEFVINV

BXPC-3 [12] = assay: Reduction in Bcl-XL protein expression in human BXPC-3 cells incubated for 24 hrs by Western blot analysis; format: functional, cell-based
[13] = molecular target: Protein kinase C beta type (Homo sapiens) (UniProt P05771); assay: Inhibition of PKC(pan)/beta II phosphorylation at S660 residue in human BXPC-3 cells at 1 uM incubated for 4 hrs by Western blot analysis; format: cell-based
BXPC-3 [14] = assay: Reduction in Bcl-2 protein expression in human BXPC-3 cells incubated for 24 hrs by Western blot analysis; format: functional, cell-based
BXPC-3 [15] = assay: Induction of apoptosis in human BXPC-3 cells assessed as increase in cleaved caspase-3 level at 0.25 uM incubated for 30 mins by Western blot analysis; format: functional, cell-based
[16] = molecular target: Inhibitor of nuclear factor kappa-B kinase subunit alpha (Homo sapiens) (UniProt O15111); assay: Inhibition of IKKalpha phosphorylation in human BXPC-3 cells at 0.5 uM measured within 1 hr by Western blot analysis; format: cell-based; conditions: time hrs <=1
Inhibitor of nuclear factor kappa-B kinase subunit alpha (Homo sapiens), sequence (O15111 whole entry): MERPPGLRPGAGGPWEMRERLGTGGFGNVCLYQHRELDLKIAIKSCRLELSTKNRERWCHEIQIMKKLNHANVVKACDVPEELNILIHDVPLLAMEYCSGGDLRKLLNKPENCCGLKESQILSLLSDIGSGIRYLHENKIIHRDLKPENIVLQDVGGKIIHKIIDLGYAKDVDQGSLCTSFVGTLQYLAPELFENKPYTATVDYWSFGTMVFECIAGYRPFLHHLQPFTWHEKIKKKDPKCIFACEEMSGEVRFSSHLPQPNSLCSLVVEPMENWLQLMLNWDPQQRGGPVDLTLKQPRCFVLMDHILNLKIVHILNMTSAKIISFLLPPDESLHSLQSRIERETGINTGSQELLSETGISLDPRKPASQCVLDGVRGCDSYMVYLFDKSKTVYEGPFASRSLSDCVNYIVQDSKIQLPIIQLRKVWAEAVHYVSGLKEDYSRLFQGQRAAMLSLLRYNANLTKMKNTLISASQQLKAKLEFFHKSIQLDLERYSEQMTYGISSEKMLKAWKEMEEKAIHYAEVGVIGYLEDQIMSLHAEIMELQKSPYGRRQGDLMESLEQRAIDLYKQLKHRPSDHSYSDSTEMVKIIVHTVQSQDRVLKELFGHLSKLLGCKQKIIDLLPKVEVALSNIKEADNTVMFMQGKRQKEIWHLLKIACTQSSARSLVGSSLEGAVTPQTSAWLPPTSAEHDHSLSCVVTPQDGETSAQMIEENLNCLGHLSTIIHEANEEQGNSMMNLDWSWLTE

[17] = molecular target: Protein kinase C iota type (Homo sapiens) (UniProt P41743); assay: Inhibition of PKClambda phosphorylation in human BXPC-3 cells at 1 uM incubated for 4 hrs by Western blot analysis; format: cell-based
[18] = molecular target: T1, Protein kinase C theta type (Homo sapiens, UniProt Q04759); assay: Inhibition of PKCtheta phosphorylation at T538 residue in human BXPC-3 cells at 0.25 uM incubated for 4 hrs by Western blot analysis; format: cell-based
Target sequence in this assay (Q04759 whole entry, looked up): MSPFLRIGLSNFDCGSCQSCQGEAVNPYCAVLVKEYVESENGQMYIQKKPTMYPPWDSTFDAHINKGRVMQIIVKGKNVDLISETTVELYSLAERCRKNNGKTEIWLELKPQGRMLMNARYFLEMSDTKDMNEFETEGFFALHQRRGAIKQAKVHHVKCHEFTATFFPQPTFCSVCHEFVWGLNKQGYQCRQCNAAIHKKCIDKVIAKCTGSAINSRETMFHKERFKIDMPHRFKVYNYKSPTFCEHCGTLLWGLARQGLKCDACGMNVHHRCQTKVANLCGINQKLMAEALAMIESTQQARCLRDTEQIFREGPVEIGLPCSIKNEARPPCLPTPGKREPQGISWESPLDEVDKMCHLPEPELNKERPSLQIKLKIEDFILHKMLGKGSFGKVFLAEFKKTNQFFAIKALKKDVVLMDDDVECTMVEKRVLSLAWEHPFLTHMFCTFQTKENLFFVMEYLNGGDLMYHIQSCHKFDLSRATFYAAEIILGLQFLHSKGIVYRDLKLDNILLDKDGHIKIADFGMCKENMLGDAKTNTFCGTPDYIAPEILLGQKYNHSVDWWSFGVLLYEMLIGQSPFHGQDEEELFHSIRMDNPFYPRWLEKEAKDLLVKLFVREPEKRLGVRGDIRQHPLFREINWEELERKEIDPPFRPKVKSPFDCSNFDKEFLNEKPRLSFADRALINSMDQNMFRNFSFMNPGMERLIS

[19] = molecular target: NF-kappa-B inhibitor alpha (Homo sapiens) (UniProt P25963); assay: Inhibition of IkappaB-alpha phosphorylation in human BXPC-3 cells at 0.5 uM measured within 1 hr by Western blot analysis; format: cell-based; conditions: time hrs <=1
BXPC-3 [20] = assay: Antitumor activity against patient-derived pancreatic cancer cells xenografted in BALB/c mouse model of patient-derived xenograft assessed as reduction in p-PKCdelta protein levels at 6 mg/kg, iv dosed once every 2 days for 18 days by Western blot analysis; format: functional, organism-based; conditions: Homo sapiens, time 18.0 day
[21] = molecular target: Protein kinase C zeta type (Homo sapiens) (UniProt Q05513); assay: Inhibition of PKCzeta phosphorylation in human BXPC-3 cells at 1 uM incubated for 4 hrs by Western blot analysis; format: cell-based
BXPC-3 [22] = assay: Antitumor activity against patient-derived pancreatic cancer cells xenografted in BALB/c mouse model of patient-derived xenograft assessed as increase in cleaved caspase- levels at 6 mg/kg, iv dosed once every 2 days for 18 days by Western blot analysis; format: functional, organism-based; conditions: Homo sapiens, time 18.0 day
BXPC-3 [23] = assay: Induction of apoptosis in human BXPC-3 cells assessed as increase in cleaved PARP level at 0.25 uM incubated for 30 mins by Western blot analysis; format: functional, cell-based
[24] = molecular target: Protein kinase C delta type (Homo sapiens, UniProt Q05655); assay: Inhibition of PKCdelta phosphorylation at T505 residue in human BXPC-3 cells at 1 uM incubated for 4 hrs by Western blot analysis; format: cell-based
BXPC-3 [25] = assay: Induction of apoptosis in human BXPC-3 cells incubated for 24 hrs by PI and annexin V-FITC staining based flow cytometry; format: functional, cell-based
BXPC-3 [26] = assay: Antitumor activity against patient-derived pancreatic cancer cells xenografted in BALB/c mouse model of patient-derived xenograft assessed as increased numbers of necrotic cells at 6 mg/kg, iv dosed once every 2 days for 18 days by H and E staining based analysis relative to control; format: functional, organism-based; conditions: Homo sapiens, time 18.0 day
BXPC-3 [27] = assay: Reduction in XIAP protein expression in human BXPC-3 cells incubated for 24 hrs by Western blot analysis; format: functional, cell-based
[28] = molecular target: T1, Protein kinase C theta type; assay: Inhibition of PKCtheta (unknown origin) by HTRF assay
Target sequence in this assay (Q04759 whole entry): as the sequence (Q04759 whole entry, looked up) above

CN1CCN(c2nc(C3=C(c4c[nH]c5ccccc45)C(=O)NC3=O)c3ccccc3n2)CC1 [SOTRASTAURIN]
IC50 (NCI-H1299): > 3200 nM
IC50 (NCI-H1975): > 3200 nM
IC50 (MGC-803): > 3200 nM
IC50 (PC-9): > 3200 nM
IC50 (ASPC1): > 3200 nM
IC50 (RKO): > 3200 nM
IC50 (A549): > 3200 nM
IC50 (BXPC-3 [1]): > 3200 nM

CN[C@@H]1C[C@H]2O[C@@](C)([C@@H]1OC)n1c3ccccc3c3c4c(c5c6ccccc6n2c5c31)C(=O)NC4=O (stereo in doubt; 15)
inhibition [2]: inactive
inhibition [3]: Active
inhibition [4]: inactive
Activity (BXPC-3 [5]): Active
Activity (BXPC-3 [6]): Dose-dependent effect
Activity (BXPC-3 [7]): Active
inhibition [8]: inactive
inhibition [9]: Active
Activity (BXPC-3 [10]): Active
inhibition [11]: inactive
Activity (BXPC-3 [12]): Dose-dependent effect
inhibition [13]: inactive
Activity (BXPC-3 [14]): Dose-dependent effect
Activity (BXPC-3 [15]): Active
inhibition [16]: Active
inhibition [17]: inactive
inhibition [18]: Active
inhibition [19]: Active
Activity (BXPC-3 [20]): Active
inhibition [21]: inactive
Activity (BXPC-3 [22]): Active
Activity (BXPC-3 [23]): Active
inhibition [24]: Active
Activity (BXPC-3 [25]): Dose-dependent effect
Activity (BXPC-3 [26]): Active
Activity (BXPC-3 [27]): Dose-dependent effect

COC1NC(=O)c2c1c1c3ccccc3[nH]c1c1[nH]c3ccc(O)cc3c21 (stereo unspecified)
IC50 [28]: > 2500 nM

CO[C@@H]1/C(=N/O)C[C@H]2O[C@]1(C)n1c3ccccc3c3c4c(c5c6ccccc6n2c5c31)C(=O)NC4
IC50 [28]: > 2500 nM

C[C@]12O[C@H](C[C@]1(O)C(=O)O)n1c3ccccc3c3c4c(c5c6ccccc6n2c5c31)CNC4=O
IC50 [28]: 5590 nM

C[C@@H]1O[C@@H](n2c3ccccc3c3c4c(c5c6ccccc6[nH]c5c32)CNC4=O)C[C@@H](N)[C@H]1OC(O)C1CO1 (stereo partly specified)
IC50 [28]: 5750 nM

C[C@H]1O[C@@H]2C[C@](O)([C@H]1O)n1c3ccccc3c3c4c(c5c6cc(O)ccc6n2c5c31)C(=O)NC4
IC50 [28]: > 2500 nM

CO[C@@H]1[C@@H](O)[C@@H](O)[C@H]2O[C@]1(C)n1c3ccccc3c3c4c(c5c6ccccc6n2c5c31)C(=O)NC4
IC50 [28]: 1010 nM

CO[C@@H]1[C@@H](O)[C@@H](O)[C@H]2O[C@]1(C)n1c3ccccc3c3c4c(c5c6ccccc6n2c5c31)C(=O)NC4=O
IC50 [28]: 1420 nM

CC(=O)N[C@H]1C[C@H](n2c3ccccc3c3c4c(c5c6ccccc6[nH]c5c32)CNC4=O)O[C@@H](C)[C@@H]1O
IC50 [28]: 1050 nM

CC(=O)N[C@H]1C[C@H]2O[C@@](C)([C@@H]1O)n1c3ccccc3c3c4c(c5c6ccccc6n2c5c31)C(=O)NC4
IC50 [28]: 270 nM

CO[C@@H]1[C@@H](O)[C@@H](O)[C@H]2O[C@]1(C)n1c3ccccc3c3c4c(c5c6ccccc6n2c5c31)C(=O)N[C@H]4O
IC50 [28]: 2250 nM

COC1NC(=O)c2c1c1c3ccccc3[nH]c1c1[nH]c3ccccc3c21 (stereo unspecified)
IC50 [28]: > 2500 nM

O=C1NCc2c1c1c3cc(O)ccc3[nH]c1c1[nH]c3ccccc3c21
IC50 [28]: 2110 nM

Reference: ChEMBL document CHEMBL4665887, “Identification, Structure-Activity Relationships of Marine-Derived Indolocarbazoles, and a Dual PKCθ/δ Inhibitor with Potent Antipancreatic Cancer Efficacy” (J Med Chem, 2020)
